Patent publication US6436996B1, “Modulation of nitric oxide production” (Duke University, priority 1997, dated 2002)
“Also recorded” adds a separate entry of the source.

Tested on: human monocyte-derived macrophage cells
Assay: Nitrite (NO) production in gamma-IFN-primed human monocyte-derived macrophages, Griess reaction
Format: cell-based
Conditions: for nitrite levels compared to poly I:C treatment alone: Aβ peptide (5 μM) plus APOE (10 nM) plus poly I:C (50 μg/ml); for change in nitrite levels compared to untreated human MDMs: Aβ peptide alone, 1 to 10 μgM
Description: Cell Cultures: Human monocytes from normal, adult volunteers were generously provided by Dr. D. Webb, Center for Biologics Evaluation and Research, NIH, Bethesda, Md. Elutriated monocytes were cultured in Dulbecco's Modified Eagle Medium (DMEM) containing 20% fetal calf serum, 10% human […] (ABI Technologies, Columbia, Md.) and […] human M-Colony Stimulating Factor (M-CSF, Genzyme, Boston, Mass.) at 37° C. in a humidified atmosphere of 5% CO2, 95% air. After 5 to 7 days, morphological changes including spreading and branching of the cells signaled differentiation from monocytes to macrophages and are now commonly called “Monocyte-Derived Macrophages” (MDMs). MDM cells were removed from the flasks by gentle trypsinization, plated at 40,000 cells/well into 96 well microtiter plates and allowed to recover overnight. These MDM cells were then primed by exposure to 1000 U/ml recombinant human gamma interferon (gamma-IFN, Sigma Chemical Co., St. Louis, Mo.) diluted into HL-1 serum free media (Hycor Biomedical Include, Irvine, Calif.). At the end of 12 h priming with gamma-IFN, the priming media was replaced with HL-1 serum free media before experimental treatments as listed in the text. Following experimental treatments, the media was removed and assayed for nitrite levels using the Griess reaction [Colton, C. et al., Mol. Chem. Neuropathol. 28, 15-20 (1996)].
Treatment Factors and Conditions: M-CSF-differentiated and gamma-IFN-primed monocyte-derived macrophage cells were treated by incubation with varying concentrations of Aβ 1-40, its reverse sequence Aβ 40-1 and a non-toxic Aβ fragment, Aβ 1-28 (Bachem, Torrance, Calif.). Aβ peptides were diluted into sterile, double-distilled water and allowed to aggregate at room temperature for 48 h and then stored at −80° C. until use. Human apolipoprotein-E purified protein (Chemicon International, Inc., Temecula, Calif.) was reconstituted in serum free media and added to cells. The double stranded polyribonucleotide, polyinosinic:polycytidylic acid (poly I:C potassium salt, Sigma Chemical Co., St. Louis, Mo.) was also reconstituted into serum free media and used to stimulate nitric oxide (NO) production as described by J. Snell et al., Journal of Leukocyte Biology, 62, 369 (1997).
Measurement of Nitric Oxide (NO): After treatment, conditioned media was removed from cells and the level of nitrite, which is a stable end-product of NO release in biological systems, measured using the Griess reaction [Colton, C., supra]. Briefly, conditioned media were transferred to a new 96 well microtiter plate and an equal volume of Griess reagents were added to each well. After 10 minutes of incubation at room temperature, color development was assessed at 550 nm using a plate reader. Nitrite levels are presented as μM/well which contained 40,000 cells and an average (±SEM) obtained for at least 4 wells assayed per experimental condition for each of at least 4 individual donors. Treatment with the nitric oxide synthase (NOS) inhibitor, N-G-methyl-l-arginine (L-NMMA) was used to determine the level of NOS-mediated NO production. Statistical significance was determined using a one way analysis of variance (ANOVA).

## CNC(=N)NCCC[C@H](N)C(=O)O [L-NMMA, N-G-methyl-l-arginine]
L-NMMA added to APOE plus poly I:C stimulated MDMs, data not shown
  effect of NOS inhibitor on nitrite levels: reduced nitrite levels to those seen in the unstimulated controls; also recorded: inhibitable

## polyinosinic:polycytidylic acid [poly I:C]
gamma-IFN-primed MDMs, 50 μg/ml poly I:C alone, 5 days
  increase in nitrite levels compared to untreated controls: 126%

## APOE: Human apolipoprotein-E purified protein (Chemicon International), reconstituted in serum free media
10 nM APOE together with 50 μg/ml poly I:C
  overall increase in nitrite levels compared to untreated or APOE-alone treated MDMs: 282%
10 nM APOE together with 50 μg/ml poly I:C, 5 days, p<0.009
  increase in nitrite levels compared to poly I:C alone: 68%
APOE alone, 1 nM to 100 nM, 5 days, gamma-IFN-primed MDMs
  nitrite levels compared to untreated controls: no significant increase
APOE and poly I:C
  NO released compared to unprimed cells: ~3 fold

## boiled APOE: APOE denatured by boiling, control for non-denatured APOE
Boiled (denatured) APOE together with poly I:C, data not shown
  nitrite levels compared to poly I:C alone: unable to increase NO production

## Aβ 1-40: toxic amyloid-βeta peptide 1-40 fragment of APP (Bachem), aggregated 48 h
Aβ 1-40 and APOE in the absence of poly I:C
  nitrite levels compared to untreated control MDMs: no significant effect
5 days
  nitrite levels compared to poly I:C treatment alone: no significant difference
5 days, gamma-IFN-primed MDMs
  change in nitrite levels compared to untreated human MDMs: not significantly different; also recorded: no significant change
Aβ peptide combined with 50 μg/ml poly I:C, 5 days
  nitrite levels compared to poly I:C alone: not significantly different

## Aβ 1-28: non-toxic amyloid-βeta peptide fragment 1-28 (Bachem)
5 days
  nitrite levels compared to poly I:C treatment alone: same result
5 days, gamma-IFN-primed MDMs
  change in nitrite levels compared to untreated human MDMs: no significant change
